Data as given in PubChem BioAssay (NCI).
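Tested at 5 concentrations; 48 h exposure; 96-well plates; endpoints linearly interpolated, else capped at highest concentration. TGI: total growth inhibition.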

Key:
Assay in all cases: NCI anticancer screen, dose series, 48 h
[1] = system: 786-0 renal
[2] = system: A498 renal
[3] = system: A549 NSCLC
[4] = system: ACHN renal
[5] = system: CAKI-1 renal
[6] = system: CCRF-CEM leukemia
[7] = system: COLO 205 colon
[8] = system: DLD-1 colon
[9] = system: DMS 114 small cell lung
[10] = system: DMS 273 small cell lung
[11] = system: EKVX NSCLC
[12] = system: HCC-2998 colon
[13] = system: HCT-116 colon
[14] = system: HCT-15 colon
[15] = system: HL-60(TB) leukemia
[16] = system: HOP-18 NSCLC
[17] = system: HOP-62 NSCLC
[18] = system: HOP-92 NSCLC
[19] = system: HT29 colon
[20] = system: IGROV1 ovarian
[21] = system: K-562 leukemia
[22] = system: KM12 colon
[23] = system: KM20L2 colon
[24] = system: LOX IMVI melanoma
[25] = system: LXFL 529 NSCLC
[26] = system: M14 melanoma
[27] = system: M19-MEL melanoma
[28] = system: MALME-3M melanoma
[29] = system: MOLT-4 leukemia
[30] = system: NCI-H226 lung
[31] = system: NCI-H23 lung
[32] = system: NCI-H460 lung
[33] = system: NCI-H522 lung
[34] = system: OVCAR-3 ovarian
[35] = system: OVCAR-4 ovarian
[36] = system: OVCAR-5 ovarian
[37] = system: OVCAR-8 ovarian
[38] = system: RPMI-8226 leukemia
[39] = system: SF-268 CNS
[40] = system: SF-295 CNS
[41] = system: SF-539 CNS
[42] = system: SK-MEL-2 melanoma
[43] = system: SK-MEL-28 melanoma
[44] = system: SK-MEL-5 melanoma
[45] = system: SK-OV-3 ovarian
[46] = system: SN12C renal
[47] = system: SNB-19 CNS
[48] = system: SNB-75 CNS
[49] = system: SNB-78 CNS
[50] = system: SW-620 colon
[51] = system: TK-10 renal
[52] = system: U251 CNS
[53] = system: UACC-257 melanoma
[54] = system: UACC-62 melanoma
[55] = system: UO-31 renal
[56] = system: RXF 393 renal
[57] = system: XF 498 CNS
[58] = system: SR leukemia

Measured: TGI

NCC(NC(=O)OCc1ccccc1)C(=O)O (centres undefined)
not listed: [56] | [57] | [58]
> 50 µM: all other assays above

Cc1cc(NS(=O)(=O)c2ccc(NC(=O)c3cccc4c(Nc5ccc(S(=O)(=O)Nc6cc(C)on6)cc5)c5ccccc5nc34)cc2)no1
86.9 µM: [52]
62 µM: [41]
88.7 µM: [47]
69.3 µM: [16]
51.7 µM: [33]
76.5 µM: [20]
35 µM: [54]
41 µM: [18]
87.5 µM: [24]
61.5 µM: [56]
78.4 µM: [42]
95.4 µM: [29]
95.5 µM: [25]
67 µM: [15]
96.1 µM: [57]
77.4 µM: [48]
89.8 µM: [1]
not listed: [12] | [13] | [30] | [51] | [58]
> 100 µM: all other assays above

CC(C)OP(=O)(OC(C)C)/C(=N/N)NNc1ccc([N+](=O)[O-])cc1
not listed: [16] | [19] | [20] | [40] | [45] | [56]
> 100 µM: all other assays above

O=C1Nc2ccccc2Nc2nc3cccccc-3c21
not listed: [2] | [16] | [29] | [53]
> 100 µM: all other assays above
